Source: patent publication US12582652B2, “3-(ethoxydifluoromethyl)-6-(5-fluoro-6-(2,2,2-trifluoroethoxy)pyridin-3-yl)-[1,2,4]triazolo[4,3-a]pyrazine as an ion channel modulator” (Praxis Precision Medicines, Inc., priority 2022, dated 2026)

System: CA1 pyramidal neurons
Assay: Intrinsic excitability (evoked action potentials) of CA1 pyramidal neurons, brain slice whole-cell current clamp
Format: cell-based, mouse
Method: Three hundred micrometer coronal hippocampal slices were cut on a vibratome (VT1200; Leica) for whole-cell patch-clamp experiments. Slices were incubated for a minimum of 1 hour in the incubation solution at room temperature before patching.
Brain slices were transferred to a submerged recording chamber on an upright microscope (Slicescope Pro 1000; Scientifica) and were perfused (2 ml/min) with the extracellular artificial cerebral spinal fluid (aCSF) recording solution at 32° C.
CA1 pyramidal neurons were identified visually in the stratum pyramidale of the CA1 region of the hippocampus, using infrared-oblique illumination microscopy with a 40× water-immersion objective (Olympus) using a camera (Dage IR-2000; Dage). […] Patch-clamp recordings were made using a micromanipulator (MPC-200; Sutter) and Axon Multiclamp 700B patch-clamp amplifier (MDS). Data were acquired using pClamp software (v10; MDS) using a sampling rate of 50 kHz and low pass Bessel filtered at 10 kHz (Digidata 1550b; Axon).
Studies were performed using whole-cell current clamp recording mode. […] Once the whole-cell configuration was obtained for 2 minutes, a holding current was injected to maintain a membrane potential of approximately −70 mV. Current steps (injected current of between −60 to 340 pA in 20 pA steps, 400 ms duration) (FIG. 1B)) were applied in current clamp mode. The amplitude of current injections was relative to the holding current. A test pulse (−5 pA amplitude, 50 ms duration) was applied 650 ms after the termination of the main current step. The inter sweep interval was 5 seconds (0.2 Hz). To be included in the study, a cell had to have an access resistance of less than 20 M2 and a holding current of less than −200 pA. Once baseline action potential firing was determined in the presence of the extracellular aCSF recording solution (baseline), Compound 1 (300 nM or 3 μM) was washed onto the slice for 5 minutes before repeating the action potential generating protocol (FIG. 1B).
Data were analyzed using Axograph X software. Individual action potentials were identified and counted using a +50 mV amplitude threshold relative to pre-event baseline. The frequencies of action potentials generated were plotted for each of the current injections to create an input-frequency relationship for each cell. Action potential amplitudes were determined relative to the pre-event baseline at the +200 pA current injection step for each cell. Once an action potential count had less than three cells contributing to the averaged amplitude, it was excluded from analysis. For statistical comparisons between groups, the total number of action potentials fired per cell was calculated. Statistical analysis was performed using GraphPad Prism software (v8). […]

CCOC(F)(F)c1nnc2cnc(-c3cnc(OCC(F)(F)F)c(F)c3)cn12 [Compound 1, 3-(ethoxydifluoromethyl)-6-(5-fluoro-6-(2,2,2-trifluoroethoxy)pyridin-3-yl)-[1,2,4]triazolo[4,3-a]pyrazine]
intrinsic excitability, number of evoked APs (0.3 μmol/L (peak INa VDB IC50)): significantly reduced
AP amplitude (+200 pA current injection, 0.3 μmol/L Compound 1, 45 μmol/L CBZ): without compromising
number of action potentials generated / action potential firing frequency vs baseline (Compound 1 at 0.3 and 3 μM, wildtype mice): significantly reduced
